For 34 molecules, EC50 results are on record in PubChem BioAssay AID1602 (NINDS Approved Drug Screening Program, 2009).

Records with an inconclusive call do not appear. Peptide text beside a SMILES is read from it.

A word on the EC50: it is the concentration that produces a half-maximal response.

The assay relates to mutant SOD1 toxicity cell model, protection read-out. Briefly: attenuators of mutant SOD1 toxicity, cell-based (AID 1602).
Take `CC(COc1ccccc1)NC(C)[C@H](O)c1ccc(O)cc1` (some centres undefined): the EC50 was 50 µM.

For the molecule `O=C1NCC2(CCN(CCc3ccccc3)CC2)O1`, the EC50 was 50 µM. In the case of `CN[C@H](CC(=O)O)C(=O)O` it was 50 µM. With `NC[C@@H]1O[C@H](O[C@@H]2[C@@H](CO)OC(O[C@@H]3[C@@H](O)[C@H](N)C[C@H](N)[C@H]3OC3O[C@H](CN)[C@@H](O)[C@H](O)[C@H]3N)[C@@H]2O)[C@H](N)[C@@H](O)[C@@H]1O` (some centres undefined), the 50% effective concentration (EC50) was 50 µM. For the molecule `CCN1C[C@@]2(COC)C3[C@@H](OC)[C@H]4[C@@H]1[C@]3(C(OC)C[C@H]2O)C1C[C@@]2(O)[C@H](OC(=O)c3ccccc3)C1[C@]4(OC(C)=O)[C@@H](O)[C@@H]2OC` (some centres undefined), the EC50 was 50 µM. To `C[C@H](CS)C(=O)N1CCC[C@H]1C(=O)O` belongs 75 µM; to `NC(N)=O`, 75 µM; to `Nc1ccc(S(=O)(=O)Nc2nccs2)cc1`, 50 µM. Consider `CC(=O)OCC1=C(C(=O)O)N2C(=O)[C@@H](NC(=O)CSc3ccncc3)[C@H]2SC1`, for which the EC50 was 50 µM. `CN(C)CCOC(=O)C(c1ccccc1)C1(O)CCCC1` (centres undefined): the EC50 was 50 µM.

On to `NC(N)=NC(N)=Nc1ccccc1`, for which the EC50 is 50 µM. As to `CNCCc1ccccn1`, the EC50 was 50 µM. For the molecule `CCN1CCN(C(=O)NC(C(=O)NC2C(=O)N3C(C(=O)O)=C(CSc4nnnn4C)CSC23)c2ccc(O)cc2)C(=O)C1=O` (centres undefined), the EC50 is 50 µM. In the case of `O=C(O)c1ccccc1OP(=O)(O)O` it was 75 µM; in that of `COc1c2occc2c(OC)c2c(=O)cc(C)oc12`, 75 µM. To `Cc1ccc(/C(=C\CN2CCCC2)c2ccccn2)cc1` belongs 50 µM. In the case of `Cn1nnnc1SCC1=C(C(=O)O)N2C(=O)C(NC(=O)C(OC=O)c3ccccc3)C2SC1` (centres undefined) it was 50 µM; in that of `CCn1cc(C(=O)O)c(=O)c2cc(F)c(N3CCNCC3)cc21`, 75 µM; in that of `NCCCC(=O)O`, 50 µM.

For `CC(=O)Nc1cc([As](=O)(O)O)ccc1O`, the EC50 is 50 µM.

For the molecule `NCCCCC(N)C(=O)NC(Cc1ccc(O)cc1)C(=O)NC(CCCCN)C(=O)O` (stereo not drawn) (H-Lys-Tyr-Lys-OH; configuration not given here), the EC50 is 75 µM.

As for `Nc1ccc(S(N)(=O)=O)cc1`, the 50% effective concentration (EC50) is 50 µM. In the case of `CO/N=C(\C(=O)NC1C(=O)N2C(C(=O)O)=C(CSc3nc(=O)c(O)nn3C)CS[C@H]12)c1csc(N)n1` (some centres undefined) it was 75 µM. Turning to `Cc1ccc(C(=O)C(C)CN2CCCCC2)cc1` (centres undefined), the EC50 is 50 µM. As to `CC(C)CC1NC(=O)CNC1=O` (centres undefined), the EC50 was 50 µM. With `CC(CCc1ccccc1)NCC(O)c1ccc(O)c(C(N)=O)c1` (centres undefined), the EC50 is 50 µM.

With `CN1C2CCC1CC(OC(=O)C(CO)c1ccccc1)C2` (centres undefined), the EC50 is 50 µM. `CC(=O)N[C@@H](CS)C(=O)O`: the EC50 is 50 µM. For `c1ccc2c(CC3=NCCN3)cccc2c1`, the EC50 is 50 µM. In the case of `C[C@H](CCC(=O)O)[C@H]1CCC2C3C(=O)CC4CC(=O)CC[C@]4(C)C3CC(=O)[C@@]21C` (some centres undefined) it was 50 µM; in that of `CC(C(=O)O)c1cccc(C(=O)c2ccccc2)c1` (centres undefined), 75 µM. To `COC(=O)C1[C@H]2C[C@H]3c4[nH]c5ccccc5c4CCN3C[C@@H]2CC[C@@H]1O` (some centres undefined) belongs 50 µM. To `CO/N=C(/C(=O)NC1C(=O)N2C(C(=O)O)=C(COC(N)=O)CSC12)c1ccco1` (centres undefined) belongs 50 µM; to `CC[N+]1(C)CCCC(OC(=O)C(O)(c2ccccc2)c2ccccc2)C1` (centres undefined), 50 µM.
